# Data as given in patent US7138361B2, “Herbicidal heterocycles” (E. I. du Pont de Nemours and Company, priority 2000, dated 2006).
# How the values were obtained:
# Type in all cases: in vivo
# Nightshade = assay: Test C preemergence
# Sunflower = assay: Test C preemergence; conditions: Rate 125 g/ha; scale 0 to 100, 0 no effect, 100 complete control
# [1] = tested on: Surinam grass (Brachiaria decumbens); assay: Test C preemergence
# Method in brief: (§1)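 Formulation: non-phytotoxic solvent mix incl. surfactant. Pre: applied right after planting. Post: 1–4-leaf seedlings. Read: visual 0–100, day 12–14, greenhouse.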
# [2] = tested on: bermudagrass (Cynodon dactylon); assay: Test C preemergence
# Method in brief: as §1
# [3] = tested on: cocklebur (Xanthium strumarium); assay: Test C preemergence
# Method in brief: as §1
# [4] = tested on: common ragweed (Ambrosia elatior); assay: Test C preemergence
# Method in brief: as §1
# corn (Zea mays) = assay: Test C preemergence
# Method in brief: as §1
# [5] = tested on: crabgrass (Digitaria sanguinalis); assay: Test C preemergence
# Method in brief: as §1
# [6] = tested on: giant foxtail (Setaria faberii); assay: Test C preemergence
# Method in brief: as §1
# [7] = tested on: goosegrass (Eleusine indica); assay: Test C preemergence
# Method in brief: as §1
# [8] = tested on: johnsongrass (Sorghum halepense); assay: Test C preemergence; conditions: for Plant response rating, Johnsongrass: scale 0 to 100, 0 no effect, 100 complete control
# Method in brief: as §1
# kochia (Kochia scoparia) = assay: Test C preemergence
# Method in brief: as §1
# [9] = tested on: lambsquarters (Chenopodium album); assay: Test C preemergence
# Method in brief: as §1
# [10] = tested on: morningglory (Ipomoea hederacea); assay: Test C preemergence
# Method in brief: as §1
# [11] = tested on: pigweed (Amaranthus retroflexus); assay: Test C preemergence
# Method in brief: as §1
# soybean (Glycine max) = assay: Test C preemergence
# Method in brief: as §1
# [12] = tested on: velvetleaf (Abutilon theophrasti); assay: Test C preemergence
# Method in brief: as §1
# [13] = tested on: woolly cupgrass (Eriochloa villosa); assay: Test C preemergence
# Method in brief: as §1
# [14] = tested on: yellow nutsedge (Cyperus esculentus); assay: Test C preemergence
# Method in brief: as §1
# [15] = tested on: barnyardgrass (Echinochloa crus-galli); assay: Test C flooded paddy test; conditions: for Barnyardgrass plant response rating: Flooded Paddy, scale 0 to 100, 0 no effect, 100 complete control; for Plant response rating, Barnyardgrass: flooded paddy test, scale 0 to 100 (0 no effect, 100 complete control)
# Method in brief: (§2)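 Plants were grown to the 2-leaf stage under flooded paddy conditions and treated. They were then kept in a greenhouse for 12 to 14 days and visually rated against untreated controls on a 0–100 scale, where 0 is no effect and 100 is complete control.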
# [16] = tested on: duck salad (Heteranthera limosa); assay: Test C flooded paddy test; conditions: for Ducksalad plant response rating: Flooded Paddy, scale 0 to 100, 0 no effect, 100 complete control; for Plant response rating, Ducksalad: flooded paddy test, scale 0 to 100 (0 no effect, 100 complete control)
# Method in brief: as §2
# [17] = tested on: smallflower flatsedge (Cyperus difformis); assay: Test C flooded paddy test; conditions: for Flatsedge plant response rating: Flooded Paddy, scale 0 to 100, 0 no effect, 100 complete control; for Plant response rating, Flatsedge: flooded paddy test, scale 0 to 100 (0 no effect, 100 complete control)
# Method in brief: as §2
# [18] = Rate 125 g/ha, scale 0 to 100, 0 no effect, 100 complete control
# [19] = preemergence, Rate 62 g/ha, scale 0 to 100
# [20] = preemergence, Rate 500 g/ha, visual evaluation after 12 to 14 days
# [21] = preemergence, Rate 250 g/ha, scale 0 to 100, 0 no effect, 100 complete control
smiles,measurement,setting,value
CCCOc1cc(N2CCC(n3ccc(C(C)(C)C)n3)C2=O)ccc1C (centres unmarked) [Compound 107],"Plant response rating, Nightshade","Nightshade; Rate 62 g/ha, scale 0 to 100",80
same,"Plant response rating, Nightshade",Nightshade; [18],90
same,"Plant response rating, Nightshade","Nightshade; Rate 250 g/ha, scale 0 to 100, 0 no effect, 100 complete control",90
same,"Plant response rating, Sunflower",Sunflower,0
same,"Plant response rating, Surinam grass",[1]; [18],0
same,"Plant response rating, Surinam grass",[1]; [19],0
same,"Plant response rating (0 to 100), Surinam grass",[1]; [20],0
same,"Plant response rating, Surinam grass",[1]; [21],0
same,"Plant response rating, Bermudagrass",[2]; [18],100
same,"Plant response rating, Bermudagrass",[2]; [19],85
same,"Plant response rating (0 to 100 where 0 is no effect and 100 is complete control), Bermudagrass",[2]; [20],100
same,"Plant response rating, Bermudagrass",[2]; [21],100
same,"Plant response rating, Cocklebur",[3]; [18],0
same,"Plant response rating, Cocklebur",[3]; [19],0
same,"Plant response rating (0 to 100), Cocklebur",[3]; [20],0
same,"Plant response rating, Cocklebur",[3]; [21],0
same,"Plant response rating, Ragweed, Common",[4]; [18],30
same,"Plant response rating, Ragweed, Common",[4]; [19],0
same,"Plant response rating (0 to 100), Ragweed, Common",[4]; [20],70
same,"Plant response rating, Ragweed, Common",[4]; [21],60
same,"Plant response rating, Corn",corn (Zea mays); [18],0
same,"Plant response rating, Corn",corn (Zea mays); [19],0
same,"Plant response rating (0 to 100), Corn",corn (Zea mays); [20],10
same,"Plant response rating, Corn",corn (Zea mays); [21],0
same,"Plant response rating, Crabgrass",[5]; [18],100
same,"Plant response rating, Crabgrass",[5]; [19],100
same,"Plant response rating (0 to 100), Crabgrass",[5]; [20],100
same,"Plant response rating, Crabgrass",[5]; [21],100
same,"Plant response rating, Foxtail, Giant",[6]; [18],100
same,"Plant response rating, Foxtail, Giant",[6]; [19],100
same,"Plant response rating (0 to 100), Foxtail, Giant",[6]; [20],100
same,"Plant response rating, Foxtail, Giant",[6]; [21],100
same,"Plant response rating, Goosegrass",[7]; [18],70
same,"Plant response rating, Goosegrass",[7]; [19],10
same,"Plant response rating (0 to 100), Goosegrass",[7]; [20],100
same,"Plant response rating, Goosegrass",[7]; [21],80
same,"Plant response rating, Johnsongrass",[8]; Rate 125 g/ha,20
same,"Plant response rating (0 to 100), Johnsongrass",[8]; [20],50
same,"Plant response rating, Johnsongrass","[8]; preemergence, Rate 250 g/ha",50
same,"Plant response rating, Kochia",kochia (Kochia scoparia); [18],70
same,"Plant response rating, Kochia",kochia (Kochia scoparia); [19],70
same,"Plant response rating (0 to 100), Kochia",kochia (Kochia scoparia); [20],100
same,"Plant response rating, Kochia",kochia (Kochia scoparia); [21],85
same,"Plant response rating, Lambsquarters",[9]; [18],100
same,"Plant response rating, Lambsquarters",[9]; [19],90
same,"Plant response rating (0 to 100), Lambsquarters",[9]; [20],100
same,"Plant response rating, Lambsquarters",[9]; [21],100
same,"Plant response rating, Morningglory",[10]; [18],0
same,"Plant response rating, Morningglory",[10]; [19],0
same,"Plant response rating (0 to 100), Morningglory",[10]; [20],100
same,"Plant response rating, Morningglory",[10]; [21],0
same,"Plant response rating, Pigweed",[11]; [18],0
same,"Plant response rating, Pigweed",[11]; [19],90
same,"Plant response rating (0 to 100), Pigweed",[11]; [20],100
same,"Plant response rating, Pigweed",[11]; [21],0
same,"Plant response rating, Soybean",soybean (Glycine max); [18],30
same,"Plant response rating, Soybean",soybean (Glycine max); [19],30
same,"Plant response rating (0 to 100), Soybean",soybean (Glycine max); [20],60
same,"Plant response rating, Soybean",soybean (Glycine max); [21],40
same,"Plant response rating, Velvetleaf",[12]; [18],50
same,"Plant response rating, Velvetleaf",[12]; [19],40
same,"Plant response rating (0 to 100), Velvetleaf",[12]; [20],100
same,"Plant response rating, Velvetleaf",[12]; [21],50
same,"Plant response rating, Cupgrass, Woolly",[13]; [18],60
same,"Plant response rating, Cupgrass, Woolly",[13]; [19],50
same,"Plant response rating (0 to 100), Cupgrass, Woolly",[13]; [20],80
same,"Plant response rating, Cupgrass, Woolly",[13]; [21],80
same,"Plant response rating, Nutsedge",[14]; [18],0
same,"Plant response rating, Nutsedge",[14]; [19],0
same,"Plant response rating (0 to 100), Nutsedge",[14]; [20],0
same,"Plant response rating, Nutsedge",[14]; [21],0
same,Barnyardgrass plant response rating,[15]; Rate 250 g/ha,70
same,Barnyardgrass plant response rating,[15]; Rate 500 g/ha,80
same,"Plant response rating, Barnyardgrass",[15]; Rate 62 g/ha,20
same,"Plant response rating, Barnyardgrass",[15]; Rate 125 g/ha,30
same,Ducksalad plant response rating,[16]; Rate 250 g/ha,0
same,Ducksalad plant response rating,[16]; Rate 500 g/ha,70
same,"Plant response rating, Ducksalad",[16]; Rate 62 g/ha,0
same,"Plant response rating, Ducksalad",[16]; Rate 125 g/ha,0
same,Flatsedge plant response rating,[17]; Rate 250 g/ha,60
same,Flatsedge plant response rating,[17]; Rate 500 g/ha,100
same,"Plant response rating, Flatsedge",[17]; Rate 62 g/ha,30
same,"Plant response rating, Flatsedge",[17]; Rate 125 g/ha,50
